From the supplement of paper PMC11919725

Tests used:
[1] = system: Jurkat; experiment: confluency relative to DMSO, 18 h (ratio); higher = more viable
How it was run: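 Compound was applied at 1 nM–10 µM (log10 steps) for 18 h at 37 °C, 5% CO2 to Jurkat cells or to primary CD4+/CD8+ T cells that were naive or had been activated 48 h with CD3/CD28 Dynabeads. Suspension (100 µl) was then plated in 96-well plates with IncuCyte Cytotox Dye and alamarBlue and imaged hourly over 3 h (×10, five images per well). Confluency was calculated from the IncuCyte phase-contrast images using the Basic Analyzer and normalised to the mean of the control wells.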

[2] = system: Jurkat; experiment: metabolic activity relative to DMSO, 18 h (ratio); higher = more viable
How it was run: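 Jurkat cells and primary CD4+/CD8+ T cells, naive or activated for 48 h on CD3/CD28 Dynabeads, were incubated for 18 h with compound at 1 nM–10 µM. Fluorescence was read 3.5 h after alamarBlue addition (10% v/v final) at excitation 544 nm and emission 584 nm. Metabolic activity is normalised to the mean of vehicle controls.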

[3] = system: Jurkat; experiment: cytotoxicity relative to DMSO, 18 h (ratio); higher = less cell death (drugs called cytotoxic fall below 1)
How it was run: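 The assay used Jurkat cells or naive or CD3/CD28 Dynabead-activated (48 h) primary CD4+/CD8+ T cells, incubated with compound at 1 nM–10 µM in log10 steps for 18 h at 37 °C, 5% CO2. Cytotoxicity was assessed with IncuCyte Cytotox Dye and IncuCyte fluorescence imaging, corrected for confluency and scaled to mean control signals.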

SMILES | confluency ([1]; 1 nM) | confluency ([1]; 10 nM) | confluency ([1]; 100 nM) | confluency ([1]; 1000 nM) | confluency ([1]; 10000 nM) | metabolic activity ([2]; 1 nM) | metabolic activity ([2]; 10 nM) | metabolic activity ([2]; 100 nM) | metabolic activity ([2]; 1000 nM) | metabolic activity ([2]; 10000 nM) | cytotoxicity ([3]; 1 nM) | cytotoxicity ([3]; 10 nM) | cytotoxicity ([3]; 100 nM) | cytotoxicity ([3]; 1000 nM) | cytotoxicity ([3]; 10000 nM)
NC(=O)C1CCCc2c1[nH]c1ccc(Cl)cc21 (stereo not given) [Selisistat] | 0.962 | 0.984 | 0.973 | 0.992 | 0.992 | 1.06 | 1.02 | 0.995 | 1.09 | 1.05 | 0.974 | 0.979 | 0.932 | 1.09 | 0.974
Cn1cnc2c(F)c(Nc3ccc(Br)cc3Cl)c(C(=O)NOCCO)cc21 [Selumetinib] | 0.985 | 0.965 | 0.988 | 0.983 | 0.974 | 1.05 | 1.04 | 1.03 | 1.03 | 1.07 | 1.01 | 0.984 | 1.06 | 1.02 | 0.959
c1ccc2c(CCNc3ccc(Nc4ccncc4)cc3)c[nH]c2c1 [Serdemetan] | 1.02 | 1.02 | 1.06 | 1.04 | 0.841 | 1.04 | 0.963 | 0.905 | 0.863 | 0.816 | 1.08 | 1.1 | 1.21 | 1.06 | 0.829
CNC1CC2OC(C)(C1OC)n1c3ccccc3c3c4c(c5c6ccccc6n2c5c31)C(=O)NC4 (stereo not given) [Staurosporine] | 0.829 | 0.908 | 0.897 | 0.964 | 0.876 | 0.916 | 1.06 | 0.979 | 1.02 | 0.995 | 0.826 | 0.955 | 0.959 | 1.04 | 0.913
CCN(CC)CCNC(=O)c1c(C)[nH]c(C=C2C(=O)Nc3ccc(F)cc32)c1C [Sunitinib] | 0.994 | 0.89 | 0.969 | 0.836 | 0.635 | 1.07 | 0.92 | 0.991 | 0.874 | 0.795 | 0.992 | 0.874 | 1.01 | 0.752 | 0.546
Cn1cc(-c2nc(NC3CCCCC3N)c(F)c3c2C(=O)NC3)cn1 (stereo not given) [TAK-659] | 0.984 | 1.04 | 0.979 | 0.946 | 0.896 | 1.07 | 1.12 | 0.932 | 0.867 | 0.955 | 0.994 | 1.11 | 0.902 | 0.949 | 0.883
CC(C)(CNC(=O)c1cccc(-c2noc(C(F)(F)F)n2)c1)c1coc(-c2ccccc2)n1 [TMP195] | 1.02 | 0.934 | 1.08 | 1.04 | 1.02 | 1.02 | 0.877 | 0.921 | 0.94 | 1.02 | 0.995 | 0.915 | 1.12 | 1.06 | 1.06
O=C(NCC1(c2nc(-c3ccccc3)cs2)CCOCC1)c1cccc(-c2noc(C(F)(F)F)n2)c1 [TMP269] | 0.997 | 1.08 | 0.985 | 0.978 | 0.947 | 0.923 | 0.987 | 1.04 | 1.06 | 1.03 | 0.968 | 1.06 | 0.951 | 0.93 | 0.891
CC(=O)Nc1ccc(C(=O)Nc2ccccc2N)cc1 [Tacedinaline] | 0.975 | 1.05 | 1.01 | 0.986 | 0.994 | 0.978 | 0.926 | 0.943 | 0.899 | 0.757 | 0.902 | 0.979 | 0.958 | 0.905 | 0.942
Cn1ncnc1C1c2n[nH]c(=O)c3cc(F)cc(c23)NC1c1ccc(F)cc1 (stereo not given) [Talazoparib] | 0.992 | 1 | 0.967 | 0.939 | 0.897 | 1.02 | 0.958 | 1.05 | 1.07 | 1.03 | 0.986 | 1.01 | 0.96 | 0.97 | 0.848
C=CCNC1=C2CC(C)CC(OC)C(O)C(C)C=C(C)C(OC(N)=O)C(OC)C=CC=C(C)C(=O)NC(=CC1=O)C2=O (stereo not given) [Tanespimycin] | 0.985 | 0.872 | 0.982 | 0.7 | 0.734 | 0.935 | 0.939 | 0.999 | 0.835 | 0.795 | 0.913 | 0.813 | 0.913 | 0.585 | 0.628
COc1cccc2c1c(O)c(C(=O)N(C)c1ccc(C(F)(F)F)cc1)c(=O)n2C [Tasquinimod] | 0.994 | 0.999 | 0.975 | 1.02 | 1 | 1.06 | 0.914 | 0.979 | 1.17 | 1.12 | 1 | 0.998 | 0.97 | 1.2 | 1.15
CCN(c1cc(-c2ccc(CN3CCOCC3)cc2)cc(C(=O)NCc2c(C)cc(C)[nH]c2=O)c1C)C1CCOCC1 [Tazemetostat] | 0.999 | 0.961 | 0.898 | 0.926 | 0.97 | 0.926 | 0.932 | 0.939 | 1.12 | 1.24 | 0.997 | 0.928 | 0.843 | 0.912 | 1.05
COC1CC2CCC(C)C(O)(O2)C(=O)C(=O)N2CCCCC2C(=O)OC(C(C)CC2CCC(OC(=O)C(C)(CO)CO)C(OC)C2)CC(=O)C(C)C=C(C)C(O)C(OC)C(=O)C(C)CC(C)C=CC=CC=C1C (stereo not given) [Temsirolimus] | 0.971 | 0.876 | 0.899 | 1.02 | 1.05 | 0.977 | 0.927 | 0.903 | 0.93 | 0.762 | 0.937 | 0.781 | 0.787 | 0.958 | 0.925
O=C1CCC(N2C(=O)c3ccccc3C2=O)C(=O)N1 (stereo not given) [Thalidomide] | 0.954 | 0.93 | 1 | 0.99 | 0.975 | 1.17 | 1.26 | 1.27 | 1.13 | 0.925 | 0.981 | 1 | 1.1 | 0.991 | 0.855
CC1CCN(C(=O)CC#N)CC1N(C)c1ncnc2[nH]ccc12 (stereo not given) [Tofacitinib] | 0.957 | 0.941 | 0.983 | 0.961 | 0.844 | 1.23 | 1.27 | 1.02 | 0.928 | 0.908 | 1.01 | 1.06 | 0.922 | 1.02 | 0.851
CC(=O)Nc1cccc(-n2c(=O)n(C3CC3)c(=O)c3c(Nc4ccc(I)cc4F)n(C)c(=O)c(C)c32)c1 [Trametinib] | 1.01 | 1.03 | 1.05 | 1.03 | 1 | 1.12 | 1.08 | 1.15 | 1.1 | 1.02 | 1.14 | 1.12 | 1.26 | 1.12 | 1.02
NC1CC1c1ccccc1 (stereo not given) [Tranylcypromine] | 0.972 | 0.963 | 0.998 | 1.02 | 1 | 1.02 | 0.916 | 1.14 | 1.08 | 0.962 | 0.98 | 0.941 | 1.15 | 1.08 | 0.956
CC(C=CC(=O)NO)=CC(C)C(=O)c1ccc(N(C)C)cc1 (stereo not given) [Trichostatin-A] | 0.999 | 1.03 | 1.03 | 0.99 | 0.96 | 1.21 | 1.17 | 1.17 | 0.97 | 0.904 | 1.27 | 1.25 | 1.22 | 1.06 | 0.98
CN1CCc2c(c3ccccc3n2Cc2ccc(C(=O)NO)cc2)C1 [Tubastatin A] | 0.97 | 0.971 | 0.987 | 0.932 | 0.841 | 1.23 | 1.23 | 1.24 | 1.15 | 1.19 | 1.04 | 1.02 | 1.05 | 0.953 | 0.893
CC(C)Nc1cc(-c2c[nH]c(C(=O)NC(CO)c3cccc(Cl)c3)c2)c(Cl)cn1 (stereo not given) [Ulixertinib] | 1.02 | 1.06 | 0.999 | 1.11 | 0.826 | 1.05 | 1.02 | 0.828 | 0.866 | 0.878 | 0.973 | 1.01 | 0.93 | 0.998 | 0.777
Cc1ncsc1-c1ccc(CNC(=O)C2CC(O)CN2C(=O)C(NC(=O)C2(C#N)CC2)C(C)(C)C)cc1 (stereo not given) [VH298] | 1.01 | 0.995 | 0.998 | 0.962 | 0.901 | 1.04 | 1.08 | 1.13 | 1.14 | 0.896 | 1 | 1.05 | 1.12 | 1.13 | 0.942
Cc1ncsc1-c1ccc(CNC(=O)C2CC(O)CN2C(=O)C(N)C(C)(C)C)cc1 (stereo not given) [VHL ligand 1] | 1.01 | 1.01 | 1.03 | 1.02 | 1.02 | 1.06 | 1.01 | 1.06 | 0.989 | 1.05 | 1.01 | 0.955 | 0.949 | 0.966 | 0.948
CC1(c2nc3c(C(N)=O)cccc3[nH]2)CCCN1 (stereo not given) [Veliparib] | 1.07 | 1.04 | 1.02 | 1.03 | 0.966 | 0.894 | 0.816 | 0.851 | 0.948 | 0.8 | 1.03 | 0.975 | 0.969 | 1.08 | 0.9
